Measurements taken from patent US20250288704A1, “CXCR4-LIGANDS FOR DIAGNOSTIC AND THERAPEUTIC USE AND PRECURSORS THEREOF” (priority 2021, published 2025).
Starred links: 1 amine or outer side, 2 acyl side, 3 side chain; linkers in the order of their positions; H or OH if unused. Positions of bridges follow the written chain, without caps; N, C: chain ends. Non-standard residues stand in square brackets, D forms with d. Residues, ends and D or L forms follow the SMILES beside them. Groups on a side chain read outwards from the residue. Chains are numbered I, II in the order given. *: point of attachment. X7 = O=C(O)CN1CCN(CC(=O)O)CCN([C@H](CCC(=O)*)C(=O)O)CCN(CC(=O)O)CC1; Benzoyl(4-SiFtBu2) = CC(C)(C)[Si](F)(c1ccc(C(=O)*)cc1)C(C)(C)C; DOTA = O=C(O)CN1CCN(CC(=O)O)CCN(CC(=O)*)CCN(CC(=O)O)CC1; d(γGlu) = O=C(O)[C@@H](CCC(=O)[*:2])N[*:1]; 2Nal = N[C@@H](Cc1ccc2ccccc2c1)C(=O)O; dCit = NC(=O)NCCC[C@@H](N)C(=O)O; dNMeOrn = CN[C@H](CCCN)C(=O)O; 4Abz = Nc1ccc(C(=O)O)cc1; dDap = NC[C@@H](N)C(=O)O; CO = O=C([*:1])[*:2]

Tests used:
[1] = Octanol/PBS partition coefficient (logD7.4); type: physicochemical; settings: n-octanol/PBS pH 7.4, radiolabeled compound
Description: The tubes were vortexed at maximum speed for 3 min to ensure equilibrium before centrifugation at 15.000×g for 5 min on a Biofuge 15 from Heraeus Holding GmbH (Osterode, Germany). An aliquot of 100 μL of each fraction was measured in the γ-counter and the log D7.4 calculated as follows: […]

[2] = system: CXCR4-expressing Chem_1 cells; experiment: Determination of internalization, dual tracer with 125I-Fc-131; type: cell-based; settings: for Cell-bound [%] / Internalized [%]: of total cellular activity
Description: CXCR4-expressing Chem_1 cells were grown in DMEM-F12 medium supplemented with 10 vol % FBS, 1 vol % NEA, 1 vol % PenStrep and 1 vol % HEPES (1.00 M). Cells were maintained in a 5% CO2 atmosphere at 37° C.
For in vitro experiments, cells were harvested by removal of the medium and incubation of the cells with trypsine/EDTA (0.05%/0.02%; w/v) for 30 in at 37° C.
Each well (n=3 for every time point) was either treated with 25 μL DMEM-F12 (+5 wt % BSA) or 25 μL of an AMD3100 stock (1 mM in H2O) for blockage of the receptors.
The experiment was stopped by placing the well-plate on ice and removing the supernatant. The cells were washed with 250 μL cold HBSS and the both fractions for each well combined, comprising the amount of unbound radioligand.
The supernatant was removed, the cells washed with cold HBSS and the respective fractions combined to obtain the amount of surface-bound radioligand.
The cells were then incubated with 300 μL NaOH (1.00 M in H2O) for at least 30 at r.t. before the supernatant was removed. The well was washed with another 300 μL NaOH and the fractions combined that contain the amount of internalized radioligand.
The three different fractions were subjected to activity measurement in the γ-counter, measuring the activity of the radionuclide used for the labeling of the peptide under investigation first. […] Data was corrected for non-specific internalization and referred to the specific internalization of the standard ligand

| SMILES | logD7.4 [1] | Internalized in relation to 125I-Fc-131 [%] ([2]; 30 min) | Cell-bound [%] ([2]; 30 min) | Internalized [%] ([2]; 30 min) | Internalization [% Fc-131] ([2]; 90 min) | Internalized in relation to 125I-Fc-131 [%] ([2]; 90 min) | Cell-bound [%] ([2]; 90 min) | Internalized [%] ([2]; 90 min) | also measured |
| --- | --- | --- | --- | --- | --- | --- | --- | --- | --- |
| C[C@@H](NC(=O)[C@@H](CCCNC(N)=O)NC(=O)[C@@H](CN)NC(=O)CN1CCN(CC(=O)O)CCN(CC(=O)O)CCN(CC(=O)O)CC1)C(=O)Nc1ccc(C(=O)NCCC[C@@H]2C(=O)N[C@@H](CCCNC(=N)N)C(=O)N[C@@H](Cc3ccc4ccccc4c3)C(=O)NCC(=O)N[C@H](Cc3ccc(O)cc3)C(=O)N2C)cc1 [CXCR4-DOTA-5 [Lu]] (cyclo([dY][dNMeOrn]([4Abz-dA-dCit-dDap-DOTA])R[2Nal]G)) | −3.58 ± 0.08 (8) | 151 ± 4.51 | 4.66 ± 0.45 | 5.80 ± 0.14 | – | – | – | – | Internalized in relation to 125I-Fc-131 [%] ([2]; 15 min): 97.3 ± 8.78%; Cell-bound [%] ([2]; 15 min): 3.47 ± 0.46%; Internalized [%] ([2]; 15 min): 3.52 ± 0.31%; Internalized in relation to 125I-Fc-131 [%] ([2]; 60 min): 151 ± 15.9%; Cell-bound [%] ([2]; 60 min): 5.21 ± 0.48%; Internalized [%] ([2]; 60 min): 6.94 ± 0.59%; Internalized in relation to 125I-Fc-131 [%] ([2]; 120 min): 190 ± 13.0%; Internalization [% Fc-131] 2 h ([2]; 2 h, 177Lu-labeled): 190 % Fc-131; Cell-bound [%] ([2]; 120 min): 3.94 ± 0.45%; Internalized [%] ([2]; 120 min): 9.65 ± 0.16% |
| C[C@@H](NC(=O)[C@@H](CCCNC(=N)N)NC(=O)[C@@H](CNC(=O)c1ccc([Si](F)(C(C)(C)C)C(C)(C)C)cc1)NC(=O)CC[C@H](C(=O)O)N1CCN(CC(=O)O)CCN(CC(=O)O)CCN(CC(=O)O)CC1)C(=O)Nc1ccc(C(=O)NCCC[C@@H]2C(=O)N[C@@H](CCCNC(=N)N)C(=O)N[C@@H](Cc3ccc4ccccc4c3)C(=O)NCC(=O)N[C@H](Cc3ccc(O)cc3)C(=O)N2C)cc1 [CXCR4-SiFA-1 [Lu]] | 1.41 ± 0.04 (8) | – | – | – | – | – | – | – | – |
| C[C@@H](NC(=O)[C@@H](CCCNC(=N)N)NC(=O)[C@@H](Cc1c[nH]cn1)NC(=O)[C@@H](CNC(=O)c1ccc([Si](F)(C(C)(C)C)C(C)(C)C)cc1)NC(=O)CC[C@H](C(=O)O)N1CCN(CC(=O)O)CCN(CC(=O)O)CCN(CC(=O)O)CC1)C(=O)Nc1ccc(C(=O)NCCC[C@@H]2C(=O)N[C@@H](CCCNC(=N)N)C(=O)N[C@@H](Cc3ccc4ccccc4c3)C(=O)NCC(=O)N[C@H](Cc3ccc(O)cc3)C(=O)N2C)cc1 [CXCR4-SiFA-2 [Ga]] | 0.39 ± 0.07 (8) | 500 ± 23.1 | 0.08 ± 0.23 | 12.5 ± 0.46 | 562 | 562 ± 33.0 | 0.43 ± 0.26 | 16.5 ± 0.94 | – |
| C[C@@H](NC(=O)[C@@H](CCCNC(=N)N)NC(=O)[C@@H](Cc1c[nH]cn1)NC(=O)[C@@H](CNC(=O)c1ccc([Si](F)(C(C)(C)C)C(C)(C)C)cc1)NC(=O)CC[C@H](C(=O)O)N1CCN(CC(=O)O)CCN(CC(=O)O)CCN(CC(=O)O)CC1)C(=O)Nc1ccc(C(=O)NCCC[C@@H]2C(=O)N[C@@H](CCCNC(=N)N)C(=O)N[C@@H](Cc3ccc4ccccc4c3)C(=O)NCC(=O)N[C@H](Cc3ccc(O)cc3)C(=O)N2C)cc1 [CXCR4-SiFA-2 [Lu]] | 0.80 ± 0.04 (8) | – | – | – | – | – | – | – | – |
| C[C@@H](NC(=O)[C@@H](CCCNC(=N)N)NC(=O)[C@@H](CN)NC(=O)[C@@H](CNC(=O)c1ccc([Si](F)(C(C)(C)C)C(C)(C)C)cc1)NC(=O)[C@@H](CCCCNC(=O)CC[C@H](C(=O)O)N1CCN(CC(=O)O)CCN(CC(=O)O)CCN(CC(=O)O)CC1)NC(=O)CC[C@H](C(=O)O)N1CCN(CC(=O)O)CCN(CC(=O)O)CCN(CC(=O)O)CC1)C(=O)Nc1ccc(C(=O)NCCC[C@@H]2C(=O)N[C@@H](CCCNC(=N)N)C(=O)N[C@@H](Cc3ccc4ccccc4c3)C(=O)NCC(=O)N[C@H](Cc3ccc(O)cc3)C(=O)N2C)cc1 [CXCR4-SiFA-3 [Ga]] (I: X7-[dK](X7)[dDap](Benzoyl(4-SiFtBu2))[dDap][dR][dA][4Abz] / II: cyclo([dY][dNMeOrn]R[2Nal]G); amide I:C-II:2) | −1.65 ± 0.09 (8) | – | – | – | – | – | – | – | – |
| C[C@@H](NC(=O)[C@@H](CCCNC(=N)N)NC(=O)[C@@H](CN)NC(=O)[C@@H](CNC(=O)CC[C@H](C(=O)O)N1CCN(CC(=O)O)CCN(CC(=O)O)CCN(CC(=O)O)CC1)NC(=O)[C@@H](CNC(=O)c1ccc([Si](F)(C(C)(C)C)C(C)(C)C)cc1)NC(=O)CC[C@@H](NC(=O)N[C@H](CCC(=O)O)C(=O)O)C(=O)O)C(=O)Nc1ccc(C(=O)NCCC[C@@H]2C(=O)N[C@@H](CCCNC(=N)N)C(=O)N[C@@H](Cc3ccc4ccccc4c3)C(=O)NCC(=O)N[C@H](Cc3ccc(O)cc3)C(=O)N2C)cc1 [CXCR4-SiFA-4 [Ga]] (I: {dE-CO-d(γGlu)}-[dDap](Benzoyl(4-SiFtBu2))[dDap](X7)[dDap][dR][dA][4Abz] / II: cyclo([dY][dNMeOrn]R[2Nal]G); amide I:C-II:2) | −1.92 ± 0.06 (8) | 56.6 ± 8.36 | 0.10 ± 0.15 | 1.36 ± 0.18 | 58 | 57.7 ± 5.43 | 0.37 ± 0.20 | 1.80 ± 0.15 | – |
